Experiments:
Type in all cases: biochemical
soybean lipoxygenase = molecular target: T1, soybean lipoxygenase (Glycine max, UniProt P08170); test: In vitro screening of compounds as potential inhibitors of soybean lipoxygenase (spectrophotometric assay, 15-HPETE at 236 nm); details: pH 9.00, 10^-4 M arachidonic acid, 90 min, room temperature; for IC50: IC50 (concentration of 50% inhibition)
T1 sequence (P08170 1-839): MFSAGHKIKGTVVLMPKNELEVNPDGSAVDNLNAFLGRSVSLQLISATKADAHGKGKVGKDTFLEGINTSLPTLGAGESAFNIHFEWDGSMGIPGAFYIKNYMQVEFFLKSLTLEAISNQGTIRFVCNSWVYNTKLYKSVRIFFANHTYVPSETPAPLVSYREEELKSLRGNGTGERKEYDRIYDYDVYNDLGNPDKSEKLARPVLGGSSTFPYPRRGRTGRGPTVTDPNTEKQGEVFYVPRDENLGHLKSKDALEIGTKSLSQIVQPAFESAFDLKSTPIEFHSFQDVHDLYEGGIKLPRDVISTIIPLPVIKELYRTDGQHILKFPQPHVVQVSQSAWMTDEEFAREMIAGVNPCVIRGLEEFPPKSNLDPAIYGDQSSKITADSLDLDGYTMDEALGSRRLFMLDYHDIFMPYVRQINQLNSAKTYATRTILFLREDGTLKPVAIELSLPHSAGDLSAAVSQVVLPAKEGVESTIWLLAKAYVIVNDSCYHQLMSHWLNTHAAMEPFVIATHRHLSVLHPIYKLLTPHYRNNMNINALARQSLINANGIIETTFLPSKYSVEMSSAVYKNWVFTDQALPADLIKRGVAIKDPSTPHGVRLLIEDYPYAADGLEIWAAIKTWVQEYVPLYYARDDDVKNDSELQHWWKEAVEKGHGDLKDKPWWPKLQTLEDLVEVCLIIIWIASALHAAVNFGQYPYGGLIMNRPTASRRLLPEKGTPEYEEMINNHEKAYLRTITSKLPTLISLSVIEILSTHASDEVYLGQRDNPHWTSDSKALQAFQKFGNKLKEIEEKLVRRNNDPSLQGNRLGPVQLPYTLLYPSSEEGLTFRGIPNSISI
Protocol: A spectrophotometric method has been developed to determine the enzyme activity according to Corey E.J. et al. (J. Amer. Chem. Soc, 104, 1750-1752; 1982). In a final volume of 1.8 ml was mixed 0.2 M of aerated Borax buffer pH =9.00 with 500 units of soybean lipoxygenase. When inhibitors were tested, they were added in 0.6 ml at final concentrations ranging from 10^-3 M to 10^-8 M followed by a preincubation of 10 minutes at room temperature. The reaction was initiated by 10^-4 M arachidonic acid. Following incubation at room temperature for 90 minutes, 15-HPETE was determined by absorbance measurements at 236 nm.
This method was validated with known inhibitors of lipoxygenase. For each test substance a control was included with boiled lipoxygenase in order to take into account any absorption of the compound at the wavelength used.

xanthine oxidase = xanthine oxidase (Bos taurus, UniProt P80457); test: In vitro screening of compounds as potential inhibitors of xanthine oxidase; details: xanthine oxidase 0.01 units/ml, xanthine 5.10^-5 M, pH 7.4
Text: A unit of activity was defined as a change of 0.001 units/minute.

[1] = molecular target: T2, cyclooxygenase (human platelets microsomes) (Homo sapiens, UniProt P23219); test: Cycloxygenase inhibition in human platelets microsomes; details: cyclooxygenase (PGE2/TxB2), pH 7.9, 37° C.
T2 construct: human platelets microsomes; from tissue; host or cells: human platelet microsomes (microsomal powder)
Protocol: The enzymatic assay was carried out in silanized glassware according to the procedure of P. Ho, P. Walters and H, Sullivan (Prostaglandins 12, 951 1976). The reaction mixture containing 50 mM Tris HCl buffer, pH 7.9, 5mM 2-Tryptophan, […] methemoglobin, 0.2 mg of microsomal powder, and the test compound in a total volume of 0.2 ml was incubated at 37° C. for 5 minutes before the addition of 10 μl of 20 μM^14 C arachidonic acid (0.08 μCI). After 5 minute incubation, the reaction was terminated by the addition of 10 μl of 1M citric acid.
The mixture was extracted four times with 0.5 ml of anhydrous diethyl ether and dried with sodium sulphate. The residue was resuspended in approximately 40 μl of ether and submitted to chromatography on silica gel plates. The elution system consisted of diethyl ether/methanol/acetic acid (90:1:2). The RF values were measured relative to arachidonic acid. Thin layer chromatography plates (TLC) were exposed on LKB ultrafilm for about 24 hours. Partial identification of the spots were carried out by running standards (PGA2, PGB2, PGE2, PGF2c, PXB2, arachidonic acid) in the same solvent system. Quantitative results were obtained by scanning the developed film with a transmission densitometer (EC Apparatus 910) interfaced with a Hewlett Packard 3390A integrator.
The activity of the substances of the cyclooxygenase is quantified by the 2 spots corresponding to PGE2 and TxB2 (ratio PGE2 /TxB2).

T2 sequence (P23219 24-599): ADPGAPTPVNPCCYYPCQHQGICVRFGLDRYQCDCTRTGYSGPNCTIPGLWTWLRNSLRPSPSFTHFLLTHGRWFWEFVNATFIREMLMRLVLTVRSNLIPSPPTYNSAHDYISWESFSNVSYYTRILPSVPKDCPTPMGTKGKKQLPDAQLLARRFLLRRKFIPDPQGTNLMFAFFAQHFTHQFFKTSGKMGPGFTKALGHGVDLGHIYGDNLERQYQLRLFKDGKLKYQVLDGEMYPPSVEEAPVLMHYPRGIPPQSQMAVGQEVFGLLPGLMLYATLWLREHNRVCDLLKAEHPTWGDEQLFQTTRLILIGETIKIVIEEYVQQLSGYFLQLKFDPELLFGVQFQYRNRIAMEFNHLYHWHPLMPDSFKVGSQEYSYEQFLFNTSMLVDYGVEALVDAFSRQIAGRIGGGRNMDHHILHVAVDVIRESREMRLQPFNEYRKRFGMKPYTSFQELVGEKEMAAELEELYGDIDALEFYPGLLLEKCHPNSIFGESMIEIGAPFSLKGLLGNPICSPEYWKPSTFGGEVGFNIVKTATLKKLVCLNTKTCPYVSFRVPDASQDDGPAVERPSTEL
xanthine oxidase, sequence (P80457 whole entry): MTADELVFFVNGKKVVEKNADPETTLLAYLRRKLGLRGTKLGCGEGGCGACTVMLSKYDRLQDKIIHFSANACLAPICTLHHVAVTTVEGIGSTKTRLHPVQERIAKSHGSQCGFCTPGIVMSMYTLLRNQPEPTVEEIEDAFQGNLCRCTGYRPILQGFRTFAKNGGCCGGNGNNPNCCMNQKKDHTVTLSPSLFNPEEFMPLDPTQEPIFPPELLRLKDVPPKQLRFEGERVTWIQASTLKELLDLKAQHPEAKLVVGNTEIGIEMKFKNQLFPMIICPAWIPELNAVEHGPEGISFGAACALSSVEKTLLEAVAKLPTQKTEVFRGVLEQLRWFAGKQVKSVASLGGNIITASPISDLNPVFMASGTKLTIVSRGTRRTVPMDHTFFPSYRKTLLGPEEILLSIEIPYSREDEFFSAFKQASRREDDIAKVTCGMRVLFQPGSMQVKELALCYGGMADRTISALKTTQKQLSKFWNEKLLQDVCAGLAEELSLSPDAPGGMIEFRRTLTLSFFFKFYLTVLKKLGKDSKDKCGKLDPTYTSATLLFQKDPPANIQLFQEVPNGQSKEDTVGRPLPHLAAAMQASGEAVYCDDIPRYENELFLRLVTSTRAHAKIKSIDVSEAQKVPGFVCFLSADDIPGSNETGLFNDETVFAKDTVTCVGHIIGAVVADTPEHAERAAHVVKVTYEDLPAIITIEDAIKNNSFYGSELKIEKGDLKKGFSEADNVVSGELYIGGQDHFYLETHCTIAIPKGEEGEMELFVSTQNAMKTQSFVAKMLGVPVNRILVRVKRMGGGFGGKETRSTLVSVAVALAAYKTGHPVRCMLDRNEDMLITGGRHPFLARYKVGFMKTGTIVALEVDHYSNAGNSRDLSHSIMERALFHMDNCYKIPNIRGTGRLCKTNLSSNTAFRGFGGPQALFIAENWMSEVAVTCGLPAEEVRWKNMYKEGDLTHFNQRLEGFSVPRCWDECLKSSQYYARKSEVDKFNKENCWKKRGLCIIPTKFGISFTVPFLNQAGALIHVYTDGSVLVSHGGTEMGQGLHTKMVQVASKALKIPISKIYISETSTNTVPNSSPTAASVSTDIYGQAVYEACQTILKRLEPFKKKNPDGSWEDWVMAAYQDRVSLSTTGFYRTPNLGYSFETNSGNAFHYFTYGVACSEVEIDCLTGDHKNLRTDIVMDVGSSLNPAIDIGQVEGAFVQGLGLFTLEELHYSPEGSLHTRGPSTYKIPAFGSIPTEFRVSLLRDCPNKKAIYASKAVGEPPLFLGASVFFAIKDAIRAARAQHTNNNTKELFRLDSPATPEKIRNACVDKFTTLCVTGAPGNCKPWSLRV

Which “IC50 (concentration of 50% inhibition)” value (soybean lipoxygenase) does the source give for N=C(N)Sc1ccc(O)c(O)c1 here?
The value was “Not active”.

Which IC50 (soybean lipoxygenase) does the source give for S=C(N=Nc1ccccc1)NNc1ccccc1 [Diphenylthiocarbazone, reference compound] here?
Its IC50 is 1.61 µM.

How did the IC50 (xanthine oxidase) turn out when Nc1nc2ncc(CNc3ccc(C(=O)N[C@@H](CCC(=O)O)C(=O)O)cc3)nc2c(=O)[nH]1 [Folic acid, reference compound] was run?
The IC50 was 0.676 µM.

For Oc1ccc(S)cc1O [drawing 6], which IC50 (soybean lipoxygenase) is on record?
The IC50 was 93 µM.

With CCC(C)CSc1ccc(O)c(O)c1 (stereo not shown) [drawing 7] as the compound, how does the IC50 (soybean lipoxygenase) read?
Its IC50 is 104 µM.

How did the IC50 (soybean lipoxygenase) turn out when CC1CCC(C(C)C)C(Sc2ccc(O)c(O)c2)C1 (stereo not shown) [drawing 8] was run?
The IC50 was 24.1 µM.

Which IC50 (soybean lipoxygenase) does the source give for CCCCCCC(C)Sc1ccc(O)c(O)c1 (stereo not shown) [drawing 9] here?
The IC50 was 27.6 µM.

For CCCCCCC(C)Sc1ccc(O)c(O)c1 (stereo not shown) [drawing 10], which IC50 (soybean lipoxygenase) is on record?
The IC50 was 24.5 µM.

For Oc1ccc(S)cc1O [drawing 20], which IC50 [1] is on record?
Its IC50 is 9.23 µM.

How did the IC50 [1] turn out when CCC(C)CSc1ccc(O)c(O)c1 (stereo not shown) [drawing 21] was run?
Its IC50 is 4.31 µM.

— patent publication US5013756A, “Catechol derivatives, a process of preparation thereof, and therapeutical compositions containing the same” (priority 1985, dated 1991)
